The text below walks through data of ChEMBL document CHEMBL4304809 (ACS Med Chem Lett, 2019).

In brackets after ≈: the same amount, converted by molar mass. Activity calls are given as the source filed them. No cut-off for these calls is given here. Some results are limits rather than exact numbers.

In data set [1] the target is Mitogen-activated protein kinase kinase kinase 14 (Homo sapiens, UniProt Q99558). In words: Inhibition of NIK (unknown origin) using ATP as substrate by transcreener ADP assay based fluorescence correlation spectroscopic analysis. Format: single protein.
Chain of Mitogen-activated protein kinase kinase kinase 14 (Q99558 whole entry): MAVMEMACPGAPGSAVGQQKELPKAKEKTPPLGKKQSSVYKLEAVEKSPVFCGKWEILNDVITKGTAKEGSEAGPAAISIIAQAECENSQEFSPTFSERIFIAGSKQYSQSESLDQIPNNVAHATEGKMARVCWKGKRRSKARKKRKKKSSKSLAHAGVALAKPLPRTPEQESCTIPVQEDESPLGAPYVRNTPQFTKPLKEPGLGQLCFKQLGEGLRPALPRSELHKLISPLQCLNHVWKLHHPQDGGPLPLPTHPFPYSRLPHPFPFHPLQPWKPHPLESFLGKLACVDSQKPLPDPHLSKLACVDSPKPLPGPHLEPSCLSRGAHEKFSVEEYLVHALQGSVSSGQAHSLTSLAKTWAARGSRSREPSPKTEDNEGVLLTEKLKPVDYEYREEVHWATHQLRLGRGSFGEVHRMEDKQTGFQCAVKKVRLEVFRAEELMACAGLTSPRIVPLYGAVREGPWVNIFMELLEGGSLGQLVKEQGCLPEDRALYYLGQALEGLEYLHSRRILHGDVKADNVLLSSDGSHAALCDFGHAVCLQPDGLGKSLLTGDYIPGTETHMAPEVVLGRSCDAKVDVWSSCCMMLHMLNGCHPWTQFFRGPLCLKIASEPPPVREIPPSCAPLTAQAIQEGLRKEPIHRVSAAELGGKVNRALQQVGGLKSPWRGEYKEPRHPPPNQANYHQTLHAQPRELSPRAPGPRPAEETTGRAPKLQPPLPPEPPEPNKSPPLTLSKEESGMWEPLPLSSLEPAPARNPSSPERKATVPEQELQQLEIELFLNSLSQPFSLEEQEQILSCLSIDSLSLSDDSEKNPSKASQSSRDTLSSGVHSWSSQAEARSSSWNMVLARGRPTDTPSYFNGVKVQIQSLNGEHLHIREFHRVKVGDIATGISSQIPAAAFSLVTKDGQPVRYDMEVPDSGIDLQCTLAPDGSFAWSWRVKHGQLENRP
The target of data set [2] is T1, Serine/threonine-protein kinase D1 (Homo sapiens, UniProt Q15139).
T1 sequence (Q15139 whole entry): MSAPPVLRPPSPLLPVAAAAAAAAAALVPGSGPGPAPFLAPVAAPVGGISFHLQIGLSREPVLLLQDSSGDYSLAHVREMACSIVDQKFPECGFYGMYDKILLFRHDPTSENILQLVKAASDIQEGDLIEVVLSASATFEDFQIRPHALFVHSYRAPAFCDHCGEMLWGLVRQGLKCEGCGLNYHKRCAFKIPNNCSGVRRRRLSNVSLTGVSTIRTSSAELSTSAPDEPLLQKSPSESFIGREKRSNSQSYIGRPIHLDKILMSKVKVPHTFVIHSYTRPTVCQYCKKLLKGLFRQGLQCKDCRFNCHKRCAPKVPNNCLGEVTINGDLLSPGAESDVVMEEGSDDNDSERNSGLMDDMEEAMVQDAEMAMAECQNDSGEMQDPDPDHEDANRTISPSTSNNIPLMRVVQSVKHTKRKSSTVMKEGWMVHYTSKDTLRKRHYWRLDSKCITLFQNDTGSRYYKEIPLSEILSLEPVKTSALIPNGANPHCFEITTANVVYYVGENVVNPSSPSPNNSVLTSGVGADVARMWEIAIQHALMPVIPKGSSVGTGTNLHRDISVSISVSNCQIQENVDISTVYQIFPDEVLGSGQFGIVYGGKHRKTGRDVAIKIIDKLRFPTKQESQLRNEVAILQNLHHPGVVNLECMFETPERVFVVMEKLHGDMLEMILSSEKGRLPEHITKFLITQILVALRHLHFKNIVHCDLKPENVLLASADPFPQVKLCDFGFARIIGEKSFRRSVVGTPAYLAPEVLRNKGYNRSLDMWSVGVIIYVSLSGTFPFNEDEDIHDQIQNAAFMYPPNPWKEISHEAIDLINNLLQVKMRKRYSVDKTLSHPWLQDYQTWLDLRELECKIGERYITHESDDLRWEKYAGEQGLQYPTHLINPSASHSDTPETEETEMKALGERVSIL
As to the kind of experiment: Inhibition of full length GST-tagged human PRKD1 expressed in Baculovirus expression system using ATP as substrate incubated for 1 to 2 hrs by transcreener ADP assay based fluorescence correlation spectroscopic analysis.

A short description of data set [3]: Lipophilicity, log D of the compound at pH 7.4. Format: physicochemical. The settings on record: buffer.
Data set [4] in a line: Kinetic solubility of the compound. Particulars: read-out: Kinetic_solubility. In kind it is physicochemical.
Data set [5] addresses Aurora kinase B (Homo sapiens) (UniProt Q96GD4). In words: Inhibition of full length His-tagged recombinant human AURKB expressed in Baculovirus expression system at 0.1 uM using Fluorescein-PKC as substrate incubated for 1 hr by TR-FRET assay relative to control.
Data set [6] concerns the target Mitogen-activated protein kinase kinase kinase kinase 4 (Homo sapiens) (UniProt O95819). In words: Inhibition of recombinant GST-tagged human MAP4K4 catalytic domain (1 to 328 residues) expressed in Baculovirus expression system at 0.1 uM using Fluorescein-PKC as substrate incubated for 1 hr by TR-FRET assay relative to control. For orientation: In TR-FRET formats the signal depends on donor and acceptor labels being close together.

The target of data set [7] is RAC-alpha serine/threonine-protein kinase (Homo sapiens) (UniProt P31749). As to the kind of experiment: Inhibition of full length His-tagged recombinant human AKT1 expressed in Baculovirus expression system at 0.1 uM using Fluorescein-Crosstide as substrate incubated for 1 hr by TR-FRET assay relative to control.
Data set [8] concerns the target T2, Serine/threonine-protein kinase D1 (Homo sapiens) (UniProt Q15139).
T2 sequence (whole entry): T1 sequence (Q15139 whole entry)
As to the kind of experiment: Inhibition of full length GST-tagged recombinant human PRKD1 expressed in Baculovirus expression system at 0.1 uM using Fluorescein-CREBtide as substrate incubated for 1 hr by TR-FRET assay relative to control.

In data set [9] the target is Tyrosine-protein kinase JAK1 (Homo sapiens) (UniProt P23458). In words: Inhibition of recombinant GST-tagged human JAK1 catalytic domain (866 to 1154 residues) expressed in Baculovirus expression system at 0.1 uM using GFP-STAT1 as substrate incubated for 1 hr by TR-FRET assay relative to control.
Chain of Tyrosine-protein kinase JAK1 (Homo sapiens) (P23458 whole entry, the tested form may be a part): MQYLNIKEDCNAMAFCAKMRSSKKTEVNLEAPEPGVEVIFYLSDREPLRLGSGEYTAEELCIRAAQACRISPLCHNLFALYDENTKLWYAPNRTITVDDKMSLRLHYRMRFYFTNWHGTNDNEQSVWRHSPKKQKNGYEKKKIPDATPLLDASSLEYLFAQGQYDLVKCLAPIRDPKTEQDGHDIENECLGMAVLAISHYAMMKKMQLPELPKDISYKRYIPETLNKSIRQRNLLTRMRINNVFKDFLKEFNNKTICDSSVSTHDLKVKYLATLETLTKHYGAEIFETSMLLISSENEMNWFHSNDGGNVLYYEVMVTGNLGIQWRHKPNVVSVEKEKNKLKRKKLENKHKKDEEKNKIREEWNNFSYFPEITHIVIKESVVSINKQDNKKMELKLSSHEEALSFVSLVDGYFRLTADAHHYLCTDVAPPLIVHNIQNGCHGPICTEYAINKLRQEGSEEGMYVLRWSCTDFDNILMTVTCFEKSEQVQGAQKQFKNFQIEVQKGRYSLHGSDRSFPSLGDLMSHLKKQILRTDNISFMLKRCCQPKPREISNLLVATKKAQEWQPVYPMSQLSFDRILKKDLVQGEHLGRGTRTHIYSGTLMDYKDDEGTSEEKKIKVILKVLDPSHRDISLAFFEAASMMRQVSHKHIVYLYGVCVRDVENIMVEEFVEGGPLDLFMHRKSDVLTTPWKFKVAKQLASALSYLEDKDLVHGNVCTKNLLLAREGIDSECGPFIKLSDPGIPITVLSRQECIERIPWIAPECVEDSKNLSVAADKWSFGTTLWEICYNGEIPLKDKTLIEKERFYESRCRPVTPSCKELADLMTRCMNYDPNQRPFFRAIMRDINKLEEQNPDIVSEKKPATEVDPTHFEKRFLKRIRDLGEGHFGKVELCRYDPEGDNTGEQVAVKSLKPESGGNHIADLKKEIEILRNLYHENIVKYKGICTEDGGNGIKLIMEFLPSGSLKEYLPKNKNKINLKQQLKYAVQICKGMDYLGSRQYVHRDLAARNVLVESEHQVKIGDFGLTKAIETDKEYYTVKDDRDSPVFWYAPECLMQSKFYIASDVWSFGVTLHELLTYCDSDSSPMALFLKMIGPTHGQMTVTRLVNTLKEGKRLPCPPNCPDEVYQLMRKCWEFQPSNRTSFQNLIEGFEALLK
The target of data set [10] is Misshapen-like kinase 1 (Homo sapiens) (UniProt Q8N4C8). As to the kind of experiment: Inhibition of recombinant GST-tagged human MINK1 catalytic domain (1 to 320 residues) expressed in Baculovirus expression system at 0.1 uM using Fluorescein-PKC as substrate incubated for 1 hr by TR-FRET assay relative to control.
Chain of Misshapen-like kinase 1 (Homo sapiens) (Q8N4C8 whole entry, looked up, the tested form may be a part): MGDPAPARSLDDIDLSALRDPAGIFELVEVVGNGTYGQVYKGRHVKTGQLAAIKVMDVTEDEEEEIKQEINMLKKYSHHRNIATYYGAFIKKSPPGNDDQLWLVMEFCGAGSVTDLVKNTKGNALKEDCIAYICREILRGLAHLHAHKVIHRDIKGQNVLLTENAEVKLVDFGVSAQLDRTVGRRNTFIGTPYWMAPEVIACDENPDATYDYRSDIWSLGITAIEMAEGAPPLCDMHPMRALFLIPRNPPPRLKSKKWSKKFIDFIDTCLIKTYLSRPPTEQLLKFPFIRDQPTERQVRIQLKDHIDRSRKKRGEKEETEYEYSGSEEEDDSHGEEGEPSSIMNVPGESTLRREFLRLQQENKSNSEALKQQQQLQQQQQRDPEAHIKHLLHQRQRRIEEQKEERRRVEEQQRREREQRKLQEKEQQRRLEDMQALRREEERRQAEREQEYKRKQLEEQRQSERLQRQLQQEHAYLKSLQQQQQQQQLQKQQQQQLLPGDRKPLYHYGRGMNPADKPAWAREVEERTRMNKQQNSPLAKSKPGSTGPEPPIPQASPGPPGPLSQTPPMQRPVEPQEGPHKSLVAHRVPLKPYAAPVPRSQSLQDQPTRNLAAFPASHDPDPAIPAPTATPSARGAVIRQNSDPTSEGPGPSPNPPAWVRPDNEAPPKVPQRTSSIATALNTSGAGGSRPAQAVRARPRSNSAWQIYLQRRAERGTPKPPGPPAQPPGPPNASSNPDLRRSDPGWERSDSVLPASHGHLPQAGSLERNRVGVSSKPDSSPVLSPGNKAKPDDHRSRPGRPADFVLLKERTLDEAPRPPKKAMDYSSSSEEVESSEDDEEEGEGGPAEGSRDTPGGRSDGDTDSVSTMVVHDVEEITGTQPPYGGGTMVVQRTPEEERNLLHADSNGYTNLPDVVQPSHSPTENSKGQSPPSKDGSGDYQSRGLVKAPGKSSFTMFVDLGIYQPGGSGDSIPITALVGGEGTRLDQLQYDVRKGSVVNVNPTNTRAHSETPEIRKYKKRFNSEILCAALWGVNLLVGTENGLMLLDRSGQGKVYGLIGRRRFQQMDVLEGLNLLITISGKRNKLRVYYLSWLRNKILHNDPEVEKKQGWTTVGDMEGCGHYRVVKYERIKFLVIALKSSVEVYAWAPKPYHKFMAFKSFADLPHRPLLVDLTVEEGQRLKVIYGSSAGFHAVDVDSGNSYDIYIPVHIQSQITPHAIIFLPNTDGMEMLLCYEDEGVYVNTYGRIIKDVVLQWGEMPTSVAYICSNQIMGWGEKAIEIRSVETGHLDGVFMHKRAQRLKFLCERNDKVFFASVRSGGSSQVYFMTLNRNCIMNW
The target of data set [11] is Serine/threonine-protein kinase PAK 4 (Homo sapiens) (UniProt O96013). As to the kind of experiment: Inhibition of recombinant GST-tagged human PAK4 catalytic domain (295 to 591 residues) expressed in Baculovirus expression system at 0.1 uM using Fluorescein-Crosstide as substrate incubated for 1 hr by TR-FRET assay relative to control.

Chain of Mitogen-activated protein kinase kinase kinase kinase 4 (Homo sapiens) (O95819 2-1239 limits assumed): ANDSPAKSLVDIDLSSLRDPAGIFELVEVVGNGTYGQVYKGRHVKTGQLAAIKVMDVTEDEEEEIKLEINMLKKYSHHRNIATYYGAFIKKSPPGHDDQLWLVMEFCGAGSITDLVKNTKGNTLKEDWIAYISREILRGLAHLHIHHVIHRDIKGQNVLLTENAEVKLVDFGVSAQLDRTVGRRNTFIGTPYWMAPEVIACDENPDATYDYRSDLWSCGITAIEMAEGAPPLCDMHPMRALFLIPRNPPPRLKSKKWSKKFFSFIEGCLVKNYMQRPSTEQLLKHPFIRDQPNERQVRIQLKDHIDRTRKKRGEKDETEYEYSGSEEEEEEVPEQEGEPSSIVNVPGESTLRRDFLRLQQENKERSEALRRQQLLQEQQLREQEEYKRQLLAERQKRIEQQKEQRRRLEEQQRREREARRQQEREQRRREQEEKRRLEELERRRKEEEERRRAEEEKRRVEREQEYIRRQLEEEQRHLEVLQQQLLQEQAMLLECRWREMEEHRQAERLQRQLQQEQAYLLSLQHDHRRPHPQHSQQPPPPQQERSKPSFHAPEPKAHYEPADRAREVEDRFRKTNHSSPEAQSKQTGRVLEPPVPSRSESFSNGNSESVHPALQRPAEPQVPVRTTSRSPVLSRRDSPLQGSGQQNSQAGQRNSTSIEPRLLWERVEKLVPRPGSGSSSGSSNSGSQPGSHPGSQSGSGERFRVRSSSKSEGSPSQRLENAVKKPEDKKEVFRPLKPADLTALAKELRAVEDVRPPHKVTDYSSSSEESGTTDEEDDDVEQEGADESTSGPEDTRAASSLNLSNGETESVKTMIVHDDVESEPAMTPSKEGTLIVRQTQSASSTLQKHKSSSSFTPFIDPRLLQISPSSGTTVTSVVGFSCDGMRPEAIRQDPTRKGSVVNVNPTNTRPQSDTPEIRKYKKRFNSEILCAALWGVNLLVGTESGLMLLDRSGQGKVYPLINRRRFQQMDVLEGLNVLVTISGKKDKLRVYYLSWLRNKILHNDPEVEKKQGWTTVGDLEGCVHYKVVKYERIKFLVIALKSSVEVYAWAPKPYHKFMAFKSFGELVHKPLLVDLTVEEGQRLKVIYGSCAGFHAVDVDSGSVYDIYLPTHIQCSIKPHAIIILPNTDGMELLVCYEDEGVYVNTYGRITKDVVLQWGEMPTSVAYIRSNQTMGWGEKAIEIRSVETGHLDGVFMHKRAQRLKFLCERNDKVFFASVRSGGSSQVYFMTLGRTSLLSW
Chain of Aurora kinase B (Homo sapiens) (Q96GD4 whole entry, the tested form may be a part): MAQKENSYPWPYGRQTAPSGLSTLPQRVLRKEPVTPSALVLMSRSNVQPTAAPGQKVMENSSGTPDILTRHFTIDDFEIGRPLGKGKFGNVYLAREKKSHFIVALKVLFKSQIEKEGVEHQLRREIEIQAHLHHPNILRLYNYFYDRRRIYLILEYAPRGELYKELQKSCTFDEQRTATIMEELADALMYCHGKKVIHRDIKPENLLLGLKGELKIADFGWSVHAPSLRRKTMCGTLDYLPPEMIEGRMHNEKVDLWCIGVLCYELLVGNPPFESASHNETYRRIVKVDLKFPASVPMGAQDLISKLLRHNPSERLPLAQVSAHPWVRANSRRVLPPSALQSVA

What is called Ki is a measure of affinity in units of concentration, obtained from inhibition or displacement. Low values mean a stronger hold on the target, high ones a looser hold on the target. Consider `Cc1cc([C@](C)(O)C#Cc2cc3c(cc2F)C2CC(C2)n2cc(C(N)=O)nc2-3)no1`, for which the values for the Ki in data set [1] and in [2] were 1 nM and 5.9 nM, respectively.
For `Cc1cc([C@](C)(O)C#Cc2ccc3c(c2)-c2nc(C(N)=O)cn2CCO3)no1`, in that order: 3.1 nM and 4.9 nM.
For `Cc1cc([C@](C)(O)C#Cc2ccc3c(c2)-c2nc(C(N)=O)cn2C2CC3C2)no1` the same measures were 0.8 nM and 0.9 nM.
Usually logD stands for lipophilicity at a set pH, counting ionised and neutral species. Read a low logD as a more hydrophilic compound. Usually inhibition stands for the share of the control response that was lost under treatment. In [3], `Cc1cnc(C(C)(C)C#Cc2ccc3c(c2)-c2nc(C(N)=O)c(C4CC4)n2C2CC3C2)o1` yielded a logD of 4.4. Further, the solubility kinetic in data set [4] came to 35 µM (≈ 14.9 µg/mL). Also, the Ki was over 1250 nM in data set [1] and under 0.2 nM in [2]. Further, the inhibition in data set [5] is over 40%.
As to `Cc1cnc([C@](C)(O)C#Cc2ccc3c(c2)-c2nc(C(N)=O)cn2C2CC3C2)o1`, the Ki in [2] was under 0.2 nM.
Consider `Cc1cc([C@](C)(O)C#Cc2cc3c(cc2F)C2CC(C2)n2c-3nc(C(N)=O)c2C2CC2)no1`, for which the log distribution coefficient (logD) in data set [3] worked out at 3.7. The same molecule registered a Ki in [2] of under 0.2 nM.
`NC(=O)c1cn2c(n1)-c1cc(C#CC3CCCC3)ccc1C1CC2C1`: the Ki in data set [1] is over 1250 nM; in [2], 44 nM.
Regarding `Cc1cc([C@@](C)(O)C#Cc2ccc3c(c2)-c2nc(C(N)=O)c(C4CC4)n2CCO3)no1`, the inhibition was 21% in [6]; 4% in data set [7]; over 30% in data set [8]; 1% in data set [9]; 20% in [10]; 7% in [11]. In data set [3], this molecule showed a logD of 2. Moreover, the solubility kinetic in data set [4] came to 124 µM (≈ 51.9 µg/mL). Further, the Ki in data set [1] is at least 1250 nM; in data set [2], under 0.2 nM.
Take `CNC(=O)c1c(C(N)=O)nc2n1C1CC(C1)c1ccc(C#CC(C)(C)c3ncc(C)o3)cc1-2`: the inhibition in [6] turned out to be 57%; in [10] it was 51%; in [5], 45%. For the same molecule, in data set [3], the logD was 3.7. Further, the solubility kinetic in data set [4] turned out to be 13 µM (≈ 5.77 µg/mL). Also, the inhibition entry in [8] is “Active”. Also, the Ki in data set [1] is over 1250 nM; in data set [2], under 0.2 nM.
For the molecule `NC(=O)c1cn2c(n1)-c1cc(C#CC3(O)CCCC3)ccc1C1CC2C1`, the Ki came to 10 nM in data set [1] and 25 nM in data set [2].
With `CNC(=O)c1c(C(N)=O)nc2n1C1CC(C1)c1cc(F)c(C#C[C@@](C)(O)c3cc(C)on3)cc1-2`, the Ki in data set [1] is 14 nM.
Regarding `CCOc1nc2ccc(C#C[C@](C)(O)c3ncc(C)o3)cc2n1-c1ccnc(N)n1`, the Ki was 634 nM in data set [1] and 62 nM in data set [2].
For `CCOc1nc2ccc(C#C[C@@](C)(O)c3ncc(C)o3)cc2n1-c1ccnc(N)n1` the same measures were 0.16 nM and 3.6 nM.
For `Cc1cc([C@@](C)(O)C#Cc2ccc3c(c2)-c2nc(C(N)=O)cn2C2CC3C2)no1` the same measures were 582 nM and 65 nM.
With `Cc1cnc([C@@](C)(O)C#Cc2ccc3c(c2)-c2nc(C(N)=O)cn2C2CC3C2)o1`, affinity in data set [2] was put at a Ki of 4.2 nM.
With `Cc1cc([C@@](C)(O)C#Cc2ccc3c(c2)-c2nc(C(N)=O)cn2CCO3)no1`, the results for the Ki in [1] and in [2] were over 250 nM and 14 nM, respectively.
